# According to US12157730B2, “Heteroaryl derivative, method for producing same, and pharmaceutical composition comprising same as effective component” (VORONOI INC., priority 2019, dated 2024):
# Target: T1, Ba/F3 cell EGFR Exon20 ins NPH (Homo sapiens, UniProt P00533, INS773NPH)
# T1 construct: expressed in transfected cells; host or cells: Ba/F3
# Test: Ba/F3 cell proliferation suppression, EGFR Exon20 ins NPH
# Format: cell-based
# Settings: GI50 class; Ba/F3 cell line with NPH inserted at Exon20 of EGFR; 72 hours
# Outline: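 After 72 h compound exposure (twelve 3-fold steps, 0.3 nM–50 um final), live cells were measured by CellTiter-Glo luminescence and growth expressed as % of control to derive GI50. Cells were seeded at 3000–5000 per well a day earlier; Ba/F3 medium contained IL-3; three repeats.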
smiles,measurement,value
"C=CC(=O)Nc1cc(Nc2cc(N3OCC[C@@H]3c3ccc(Cl)cc3)ncn2)c(OC)cc1N1CCC(N2CCN(C(C)C)CC2)CC1 [compound 807, N-(5-((6-((R)-3-(4-chlorophenyl)isoxazolidine-2-yl)pyrimidine-4-yl)amino)-2-(4-(4-isopropylpiperazine-1-yl)piperidine-1-yl)-4-methoxyphenyl) acrylamide]",Ba/F3 (NPH) Activity,A (GI50 < 50 nM)
"C=CC(=O)Nc1cc(Nc2cc(N3OCC[C@@H]3c3cccc(C#N)c3)ncn2)c(OC)cc1N1CCC(N2CC[C@@H](N(C)C)C2)CC1 [compound 492, N-(5-((6-((R)-3-(3-cyanophenyl)isoxazolidine-2-yl)pyrimidine-4-yl)amino)-2-(4-((R)-3-(dimethylamino)pyrolidine-1-yl)piperidine-1-yl)-4-methoxyphenyl) acrylamide]",Ba/F3 (NPH) Activity,B (50 nM ≤ GI50 < 500 nM)
"C=CC(=O)Nc1cc(Nc2cc(N3OCC[C@@H]3c3cccc(F)c3Cl)ncn2)c(OC)cc1N1CCC(N2CCN(CC)CC2)CC1 [compound 602, N-(5-((6-((R)-3-(2-chloro-3-fluorophenyl)isoxazolidine-2-yl)pyrimidine-4-yl)amino)-2-(4-(4-thylpiperazine-1-yl)piperidine-1-yl)-4-methoxyphenyl) acrylamide]",Ba/F3 (NPH) Activity,A (GI50 < 50 nM)
"C=CC(=O)Nc1cc(Nc2cc(N3OCC[C@@H]3c3cccc(Cl)c3C)ncn2)c(OC)cc1N(C)CCN(C)C [compound 583, N-(5-((6-((R)-3-(3-chloro-2-methylphenyl)isoxazolidine-2-yl)pyrimidine-4-yl)amino)-2-((2-(dimethylamino)ethyl)(methyl)amino)-4-methoxyphenyl) acrylamide]",Ba/F3 (NPH) Activity,A (GI50 < 50 nM)
"C=CC(=O)Nc1cc(Nc2cc(N3OCC[C@@H]3c3ccc(Cl)c(F)c3)ncn2)c(OC)cc1N1CCC(N2CCN(C3COC3)CC2)CC1 [Example 83, N-(5-((6-((R)-3-(4-chloro-3-fluorophenyl)isoxazolidine-2-yl)pyrimidine-4-yl)amino)-4-methoxy-2-(4-(4-(oxetane-3-yl)piperazine-1-yl)piperidine-1-yl)phenyl)acrylamide]",Ba/F3 (NPH) Activity,A (GI50 < 50 nM)
"C=CC(=O)Nc1cc(Nc2cc(N3OCC[C@@H]3c3cc(F)cc(Cl)c3)ncn2)c(OC)cc1N1CCC(N(C)C)CC1 [compound 627, N-(5-((6-((R)-3-(3-chloro-5-fluorophenyl)isoxazolidine-2-yl)pyrimidine-4-yl)amino)-2-(4-(dimethylamino)piperidine-1-yl)-4-methoxyphenyl) acrylamide]",Ba/F3 (NPH) Activity,A (GI50 < 50 nM)
"C=CC(=O)Nc1cc(Nc2cc(N3OCC[C@@H]3c3ccc(C)nc3)ncn2)c(OC)cc1N1CCC(N(C)C)CC1 [Example 50, N-(2-(4-dimethylaminopiperidine-1-yl)-4-methoxy-5-((6-((R)-3-(6-methylpyridine-3-yl)isoxazolidine-2-yl)pyrimidine-4-yl)amino)phenyl) acrylamide]",Ba/F3 (NPH) Activity,B (50 nM ≤ GI50 < 500 nM)
"C=CCN1CCN(C2CCN(c3cc(OC)c(Nc4cc(N5OCC[C@@H]5c5cccc(C#N)c5)ncn4)cc3NC(=O)C=C)CC2)CC1 [Example 210, N-(2-(4-(4-allylpiperazine-1-yl)piperidine-1-yl)-5-((6-((R)-3-(3-cyanophenyl)isoxazolidine-2-yl)pyrimidine-4-yl)amino)-4-methoxyphenyl) acrylamide]",Ba/F3 (NPH) Activity,A (GI50 < 50 nM)
"C=CC(=O)Nc1cc(Nc2cc(N3OCCC3(C)c3ccccc3)ncn2)c(OC)cc1N1CCC(N2CCN(CC)CC2)CC1 (stereo not drawn) [Example 261, N-(2-(4-(4-ethylpiperazine-1-yl)piperidine-1-yl)-4-methoxy-5-((6-(3-methyl-3-phenylisoxazolidine-2-yl)pyrimidine-4-yl)amino)phenyl) acrylamide]",Ba/F3 (NPH) Activity,C (500 nM ≤ GI50 < 5000 nM)
